Where a name gives a salt, the structure may show the parent alone. Read-outs that look alike come from different tables or passages of the source.
Tested on: panel of 240 cancer cell lines
Assay: Proliferation in a broad panel of 240 cancer cell lines, 2D culture (Eurofins Panlabs Oncopanel)
Assay type: cell-based
Procedure: Cell lines used in these experiments were obtained from the following sources and were cultured according to conditions specified by the respective cell banks. […] The cell lines listed above were tested for mycoplasma and were negative. Cells were authenticated by STR method or vendor protocols. All 313 cell lines in the CRIPSR pooled screen were purchased from commercial vendors and were STR authenticated and mycoplasma negative. A broad panel of cancer cell lines was screened in the Eurofins Oncopanel. All cells in this panel were mycoplasma negative and STR verified.

Measured: IC50

NC1CCC(S(=O)(=O)N2C3CCC2CC(NC(=O)c2cc(C4CC4)on2)C3)CC1 [EPZ028862, N-((1R,3R,5S)-8-((1r,4R)-4-aminocyclohexylsulfonyl)-8-aza-bicyclo[3.2.1]octan-3-yl)-5-cyclopropylisoxazole-3-carboxamide hydrochloride]
> 25 µM: Homo sapiens, LS174T, LS-174T, Colon/GI, read-out: IC50 | Homo sapiens, LS-1034, LS1034, Colon/GI, read-out: IC50 | Homo sapiens, MC-IXC, CNS, read-out: IC50 | Homo sapiens, MCF7, MCF7, Breast, read-out: IC50 | Homo sapiens, MDA-MB-231, MDA MB 231, Breast, read-out: IC50 | Homo sapiens, MDA-MB-436, MDA-MB-436, Breast, read-out: IC50 | Homo sapiens, MDA-MB-453, MDA MB 453, Breast, read-out: IC50 | Homo sapiens, MDA-MB-468, MDA MB 468, Breast, read-out: IC50 | Homo sapiens, MEG-01, MEG01, Haematopoietic and lymphoid, read-out: IC50 | Homo sapiens, MES-SA, Soft Tissue, read-out: IC50 | Homo sapiens, MG-63, MG-63, Soft Tissue, read-out: IC50 | Homo sapiens, MHH-PREB-1, MHH-PREB-1, Haematopoietic and lymphoid, read-out: IC50 | Homo sapiens, MIA PaCa-2, Mia PaCa-2, Pancreas, read-out: IC50 | Homo sapiens, MOLT-3, MOLT-3, Haematopoietic and lymphoid, read-out: IC50 | Homo sapiens, MOLT-16, MOLT-16, Haematopoietic and lymphoid, read-out: IC50 | Homo sapiens, MV4-11, MV-4-11, Haematopoietic and lymphoid, read-out: IC50 | Homo sapiens, Malme-3M, MALME3M, Skin, read-out: IC50 | Homo sapiens, MeWo, Skin, read-out: IC50 | Homo sapiens, NALM-6, NALM-6, Haematopoietic and lymphoid, read-out: IC50 | Homo sapiens, NCI-H69, NCI-H69, Lung, read-out: IC50 | Homo sapiens, NCI-H292, NCI-H292, Lung, read-out: IC50 | Homo sapiens, NCI-H295R, Endocrine, read-out: IC50 | Homo sapiens, NCI-H441, NCIH441, Lung, read-out: IC50 | Homo sapiens, NCI-H446, NCIH446, Lung, read-out: IC50 | Homo sapiens, NCI-H460, NCI-H460, Lung, read-out: IC50 | Homo sapiens, NCI-H508, NCI-H508, Colon/GI, read-out: IC50 | Homo sapiens, NCI-H520, NCI-H520, Lung, read-out: IC50 | Homo sapiens, NCI-H596, NCI-H596, Lung, read-out: IC50 | Homo sapiens, NCI-H661, NCI-H661, Lung, read-out: IC50 | Homo sapiens, NCI-H747, NCI-H747, Colon/GI, read-out: IC50 | Homo sapiens, OE19, OE19, Head and Neck, read-out: IC50 | Homo sapiens, OE33, OE33, Head and Neck, read-out: IC50 | Homo sapiens, OVCAR-3, OVCAR3, Female GU, read-out: IC50 | Homo sapiens, PANC-1, PANC-1, Pancreas, read-out: IC50 | Homo sapiens, RKOE6, RKOE6, Colon/GI, read-out: IC50 | Homo sapiens, RL95-2, RL95-2, Female GU, read-out: IC50 | Homo sapiens, RPMI-6666, RPMI 6666, Haematopoietic and lymphoid, read-out: IC50 | Homo sapiens, RPMI-7951, RPMI-7951, Skin, read-out: IC50 | Homo sapiens, RPMI-8226, RPMI 8226, Haematopoietic and lymphoid, read-out: IC50 | Homo sapiens, Raji, Haematopoietic and lymphoid, read-out: IC50 | Homo sapiens, Ramos, Ramos (RA 1), Haematopoietic and lymphoid, read-out: IC50 | Homo sapiens, SAOS-2, SaOS2, Soft Tissue, read-out: IC50 | Homo sapiens, SCC-4, SCC-4, Head and Neck, read-out: IC50 | Homo sapiens, SCC-9, SCC-9, Head and Neck, read-out: IC50 | Homo sapiens, SCC-25, SCC-25, Head and Neck, read-out: IC50 | Homo sapiens, SCaBER, Bladder, read-out: IC50 | Homo sapiens, SHP77, SHP-77, Lung, read-out: IC50 | Homo sapiens, SJRH30, SJRH30, Soft Tissue, read-out: IC50 | Homo sapiens, SJSA-1, SJSA1, Soft Tissue, read-out: IC50 | Homo sapiens, SK-BR-3, SK-BR-3, Breast, read-out: IC50 | Homo sapiens, SK-LMS-1, SK-LMS-1, Soft Tissue, read-out: IC50 | Homo sapiens, SK-MEL3, SK-MEL-3, Skin, read-out: IC50 | Homo sapiens, SK-MEL-1, SK-MEL-1, Skin, read-out: IC50 | Homo sapiens, SK-MEL-28, SK-MEL-28, Skin, read-out: IC50 | Homo sapiens, SK-MES-1, SKMES1, Lung, read-out: IC50 | Homo sapiens, SK-N-AS, CNS, read-out: IC50 | Homo sapiens, SK-N-DZ, CNS, read-out: IC50 | Homo sapiens, SK-N-FI, CNS, read-out: IC50 | Homo sapiens, SK-NEP-1, SK-NEP-1, Kidney, read-out: IC50 | Homo sapiens, SK-OV-3, SKOV3, Female GU, read-out: IC50 | Homo sapiens, SK-UT-1, SK-UT-1, Soft Tissue, read-out: IC50 | Homo sapiens, SNB-19, SNB-19, CNS, read-out: IC50 | Homo sapiens, SNU1, SNU-1, Colon/GI, read-out: IC50 | Homo sapiens, SNU-5, SNU-5, Colon/GI, read-out: IC50 | Homo sapiens, SNU-16, SNU-16, Colon/GI, read-out: IC50 | Homo sapiens, SNU-423, SNU-423, Liver, read-out: IC50 | Homo sapiens, ST486, ST486, Haematopoietic and lymphoid, read-out: IC50 | Homo sapiens, SU.86.86, SU.86.86, Pancreas, read-out: IC50 | Homo sapiens, SW13, SW-13, Endocrine, read-out: IC50 | Homo sapiens, SW48, SW48, Colon/GI, read-out: IC50 | Homo sapiens, SW480, SW480, Colon/GI, read-out: IC50 | Homo sapiens, SW684, SW684, Soft Tissue, read-out: IC50 | Homo sapiens, SW837, SW837, Colon/GI, read-out: IC50 | Homo sapiens, SW872, SW872, Soft Tissue, read-out: IC50 | Homo sapiens, SW900, SW900, Lung, read-out: IC50 | Homo sapiens, SW948, SW948, Colon/GI, read-out: IC50 | Homo sapiens, SW 954, SW954, Female GU, read-out: IC50 | Homo sapiens, SW 962, SW962, Female GU, read-out: IC50 | Homo sapiens, SW982, SW982, Soft Tissue, read-out: IC50 | Homo sapiens, SW1088, SW1088, CNS, read-out: IC50 | Homo sapiens, SW1353, SW1353, Soft Tissue, read-out: IC50 | Homo sapiens, SW1417, SW1417, Colon/GI, read-out: IC50 | Homo sapiens, SW1463, SW1463, Colon/GI, read-out: IC50 | Homo sapiens, SW1783, SW1783, CNS, read-out: IC50 | Homo sapiens, SW-403, SW403, Colon/GI, read-out: IC50 | Homo sapiens, SW-620, SW620, Colon/GI, read-out: IC50 | Homo sapiens, SiHa, Female GU, read-out: IC50 | Homo sapiens, T47D, Breast, read-out: IC50 | Homo sapiens, T98G, CNS, read-out: IC50 | Homo sapiens, TCC-SUP, TCCSUP, Bladder, read-out: IC50 | Homo sapiens, THP-1, Thp1, Haematopoietic and lymphoid, read-out: IC50 | Homo sapiens, U2OS, Soft Tissue, read-out: IC50 | Homo sapiens, U138-MG, U-138MG, CNS, read-out: IC50 | Homo sapiens, U-87 MG, CNS, read-out: IC50 | Homo sapiens, UMUC3, UM-UC-3, Bladder, read-out: IC50 | Homo sapiens, WI-38, Wi38, Lung, read-out: IC50 | Homo sapiens, WiDr, Colon/GI, read-out: IC50 | Homo sapiens, YAPC, Pancreas, read-out: IC50 | Hs766T, Hs 766T, Pancreas, read-out: IC50 | J82, Bladder, read-out: IC50 | JAR, Female GU, read-out: IC50 | KHOS-240S, Soft Tissue, read-out: IC50 | KLE, Female GU, read-out: IC50 | KPL-1, KPL-1, Breast, read-out: IC50 | MT-3, Breast, read-out: IC50 | MX1, Haematopoietic and lymphoid, read-out: IC50 | OCUG-1, OCUG-1, Liver, read-out: IC50 | OE21, OE21, Head and Neck, read-out: IC50 | PC-3, Prostate, read-out: IC50 | RD, Soft Tissue, read-out: IC50 | RKO, Colon/GI, read-out: IC50 | RKOAS451, RKO-AS45-1, Colon/GI, read-out: IC50 | SH-4, Skin, read-out: IC50 | SKO-007, SKO-007, Haematopoietic and lymphoid, read-out: IC50 | SR, Haematopoietic and lymphoid, read-out: IC50 | SW579, SW579, Endocrine, read-out: IC50 | T24, Bladder, read-out: IC50 | TE 381.T, Soft Tissue, read-out: IC50 | U266B1, Haematopoietic and lymphoid, read-out: IC50 | Y79, Eye-retinoblastoma, read-out: IC50 | read-out: anti-proliferative IC50 across the panel of 240 cancer cell lines, 2D culture

Reference: article PMC5983452 (PLoS ONE, 2018)
